Results from the NIST ThermoML archive (doi:10.1021/acs.jced.9b00696).
± gives the expanded uncertainty stated by the source.

What was measured:
[1] = Crystal; DSC
[2] = Molar enthalpy of transition or fusion; conditions: Crystal; DSC

Triple point temperature [1]: 485.01 ± 0.81 K
Molar enthalpy of transition or fusion [2]: 30.2 ± 1.4 kJ/mol
Compound: C[C@]12CCC3=C4CCC(=O)C=C4CC[C@H]3[C@@H]1CC[C@@]2(O)CC#N [dienogest]
